Experiments:
Sphaerotheca fuliginea = assay: whole plant or invertebrate; format: in vivo; conditions: for % Efficacy: in vivo
Phytophthora infestans = assay: whole plant or invertebrate; format: in vivo
[1] = Podosphaera fuliginea, in Cucumis sativus, 240 h, read-out: % Efficacy
[2] = Phytophthora infestans, in Solanum lycopersicum, 72 h, read-out: % Efficacy

For `CC#Cc1cc(C)nc(Nc2ccccc2)n1` [mepanipyrim (L) (49), mepanipyrim], the pest or weed control at 10 g/ha (Sphaerotheca fuliginea; [1]) was 11% and the pest or weed control at 5 g/ha (Phytophthora infestans; [2]) was 0%.

In the case of `CCCN(CC)CC1COC2(CCC(C(C)(C)C)CC2)O1` (stereo not shown) [spiroxamine (II) (1), 8-t-butyl-2-(N-ethyl-N-n-propyl-amino)-methyl-1,4-dioxaspiro-[5,4]-decane], the pest or weed control at 5 g/ha (Sphaerotheca fuliginea; [1]) is reported as 0% and the pest or weed control at 10 g/ha (Phytophthora infestans; [2]) is reported as 0%.

Work on `CSC1=N[C@@](C)(c2ccccc2)C(=O)N1Nc1ccccc1` [fenamidone] yielded a pest or weed control at 0.5 g/ha (Sphaerotheca fuliginea; [1]) of 0% and a pest or weed control at 0.5 g/ha (Phytophthora infestans; [2]) of 48%.

`Cc1ccc(N(SC(F)(Cl)Cl)S(=O)(=O)N(C)C)cc1` [tolylfluanid] showed a pest or weed control at 40 g/ha (Sphaerotheca fuliginea; [1]) of 0%.

For `COCC(=O)N(c1c(C)cccc1C)C(C)C(=O)OC` (stereo not shown) [metalaxyl (XXVII)(26), metalaxyl], the pest or weed control at 1 g/ha (Sphaerotheca fuliginea; [1]) was 11%.

In the case of `COc1ccc(C(=CC(=O)N2CCOCC2)c2ccc(Cl)cc2)cc1OC` [dimetomorph (XLV) (44), dimetomorph], the pest or weed control at 1 g/ha (Sphaerotheca fuliginea; [1]) is reported as 0% and the pest or weed control at 1 g/ha (Phytophthora infestans; [2]) is reported as 23%.

`N=C(N)NCCCCCCCCNCCCCCCCCNC(=N)N` [(XIX) (18), N,N′″-(iminodi-8,1-octanediyl)bis-guanidine triacetate] showed a pest or weed control at 2.5 g/ha (Sphaerotheca fuliginea; [1]) of 43%.

`N#Cc1c[nH]cc1-c1cccc(Cl)c1Cl` [fenpiclonil (XXVIII) (27), 4-(2,3-dichlorophenyl)-1H-pyrrole-3-carbonitrile] gave a pest or weed control at 2.5 g/ha (Sphaerotheca fuliginea; [1]) of 0%.

`CC(C)NC(=O)N1CC(=O)N(c2cc(Cl)cc(Cl)c2)C1=O` [iprodione (LXV) (64), iprodione] was tested, and the pest or weed control at 5 g/ha (Sphaerotheca fuliginea; [1]) was 0%.

`CC12CC1(C)C(=O)N(c1cc(Cl)cc(Cl)c1)C2=O` (stereo not shown) [procymidone (XLII) (41), procymidone] was tested, and the pest or weed control at 5 g/ha (Sphaerotheca fuliginea; [1]) was 0%.

`CCCCNC(=O)n1c(NC(=O)OC)nc2ccccc21` [benomyl (LXXXIII) (30), benomyl] showed a pest or weed control at 5 g/ha (Sphaerotheca fuliginea; [1]) of 50%.

`O=C1c2ccccc2C(=O)N1SC(Cl)(Cl)Cl` [folpet] was tested, and the pest or weed control at 40 g/ha (Sphaerotheca fuliginea; [1]) was 0%.

In the case of `O=C1C2CC=CCC2C(=O)N1SC(Cl)(Cl)Cl` (stereo not shown) [captan (LV) (54), captan], the pest or weed control at 40 g/ha (Phytophthora infestans; [2]) is reported as 0%.

`N#Cc1c(Cl)c(Cl)c(Cl)c(C#N)c1Cl` [tetrachloro-isophthalo-dinitrile] showed a pest or weed control at 40 g/ha (Sphaerotheca fuliginea; [1]) of 0%.

dichlofluanid was tested, and the “% Efficacy” value (Sphaerotheca fuliginea) was 0%.

mancozeb [mancozeb (XLIII) (42)] was tested, and the “% Efficacy” value (Phytophthora infestans; in vivo) was 23%.

For `CO/C=C(/C(=O)OC)c1ccccc1COc1cccc(C(F)(F)F)n1` [picoxystrobin (LXXXIII) (82), picoxystrobin], the pest or weed control at 2 g/ha (Sphaerotheca fuliginea; [1]) was 0%.

`Cc1ccc2nc3sc(=O)sc3nc2c1` [chinomethionat] gave a pest or weed control at 20 g/ha (Phytophthora infestans; [2]) of 0%.

`CO/N=C(/C(=O)OC)c1ccccc1CO/N=C(\C)c1cccc(C(F)(F)F)c1` [trifloxystrobin (LXXVI) (75), trifloxystrobin] gave a pest or weed control at 2 g/ha (Sphaerotheca fuliginea; [1]) of 43%.

Work on `CO/C=C(/C(=O)OC)c1ccccc1Oc1cc(Oc2ccccc2C#N)ncn1` [azoxystrobin (XVII) (16), azoxystrobin] yielded a pest or weed control at 1 g/ha (Sphaerotheca fuliginea; [1]) of 37%.

`C=CC1(C)OC(=O)N(c2cc(Cl)cc(Cl)c2)C1=O` (stereo not shown) [vinclozolin] showed a pest or weed control at 5 g/ha (Sphaerotheca fuliginea; [1]) of 10%.

`[Cl-].[Cu+2].[Cu+2].[OH-].[OH-].[OH-]` [copper oxychloride (LXIV) (63), copper oxychloride] was tested, and the “% Efficacy” value (Sphaerotheca fuliginea) was 11%.

In the case of `COC(=O)Nc1nc2ccccc2[nH]1` [carbendazim (XXXI) (30), carbendazim], the pest or weed control at 2.5 g/ha (Sphaerotheca fuliginea; [1]) is reported as 63%.

Work on `CCCN(CCOc1c(Cl)cc(Cl)cc1Cl)C(=O)n1ccnc1` [prochloraz (XXI) (20), prochloraz] yielded a pest or weed control at 10 g/ha (Phytophthora infestans; [2]) of 0%.

With `CCC1(C(=O)NC(C)c2ccc(Cl)cc2)C(C)C1(Cl)Cl` (stereo not shown) [N-[1-(4-chloro-phenyl)-ethyl]-2,2-dichloro-1-ethyl-3-methyl-cyclopropane-carboxamide] the pest or weed control at 5 g/ha (Sphaerotheca fuliginea; [1]) was 10%.

For `CC(C)(C)C(=O)C(Oc1ccc(Cl)cc1)n1cncn1` (stereo not shown) [triadimefon (IX) (8), 1-(4-chloro-phenoxy)-3,3-dimethyl-1-(1,2,4-triazol-1-yl)-butan-2-one], the pest or weed control at 10 g/ha (Sphaerotheca fuliginea; [1]) was 0%.

In the case of `CC1(C(=O)Nc2ccc(O)c(Cl)c2Cl)CCCCC1` [fenhexamid (LII) (51), fenhexamid], the pest or weed control at 5 g/ha (Sphaerotheca fuliginea; [1]) is reported as 10%.

From patent publication US20030229087A1 (priority 2002, published 2003)
